Publication PMC11001709, “Anti-toxoplasma activity and DNA-binding of copper(II) and zinc(II) coordination compounds with 5-nitroimidazole-based ligands” (Journal of Biological Inorganic Chemistry, 2023)
Read-outs that look alike come from different tables or passages of the source.

Assays:
ct-DNA [1] = assay: Competitive displacement of ethidium bromide from DNA (fluorescence); type: binding, calf; conditions: EB 75 µM, [DNA]b = 30 µM, compound 0-50 µM, 1 h
Protocol: (§1) For the UV–Vis, fluorescence and circular dichroism assays the concentration of ct-DNA was determined on a Varian Cary 100 Scan spectrophotometer from the absorption at 260 nm and the corresponding molar absorptivity of 6600 M^−1 cm^−1 (nucleobase concentration). The stock solutions of the coordination compounds and the free ligands were prepared in cacodylate/NaCl buffer (1 mM cacodylic acid and 20 mM sodium chloride) at pH 7.25. The final samples contained a DMSO concentration of 0.2%.
(§2) Emission intensity of the dyes DNA-intercalator ethidium bromide, EB (λexc = 514 nm) and the minor-groove binder Hoechst 33,258 (λexc = 350 nm) was measured on iHR320 HORIBA JOBIN YVON spectrofluorometer. The samples contained 15 µM (in base pairs) of ct-DNA and 75 µM of EB […] in cacodylate/NaCl buffer. The respective dye was incubated for 30 min with ct-DNA to allow its binding to the biomolecule. Subsequently, increasing amounts of coordination compounds (0–50 µM) were added up to a final volume of 2 mL, and the samples were incubated for 1 h at 37 °C. The fluorescence spectra of all samples were recorded at room temperature. The affinity of the compounds for ct-DNA compared to EB was evaluated through the Stern–Volmer quenching constant Ksv, from Eq. 3:3 I0/I=1+Ksvcompound where I0 and I are the emission intensities in absence and the presence of the compound, respectively.
With the aim to corroborate the binding mode of the coordination compounds with DNA competitive displacement assays were carried out by florescence spectroscopy. The fluorescence of ethidium bromide (EB) increases when it intercalates between DNA base pairs, forming an EB-DNA adduct. Competitive binding assays will lead to a decrease of the fluorescence intensity (λexc = 514 nm; λem = 610 nm) if the interacting molecule is capable of displacing EB from the DNA helix. Solutions containing constant concentrations of DNA (30 µM) and EB (75 µM) were incubated for 30 min. Then the coordination compounds to be tested were added in a concentration in the range of 0–50 µM (corresponding to [complex]/[DNA] ratios between = 0 and 3.3), and fluorescence spectra were recorded after 1 h of incubation.

ct-DNA [2] = assay: Competitive displacement of Hoechst 33258 from DNA (fluorescence); type: binding, calf; conditions: Hoechst 33258 1.9 µM, [DNA]b = 30 µM, compound 0-50 µM, 1 h
Protocol: as §1, §2
Competitive binding assays were carried out with Hoechst 33,258. This dye binds to B-DNA, especially those with an AT-rich sequence giving a fluorescent signal at 458 nm when excited at 350 nm. As for to the EB assays, DNA (30 µM) was incubated for 30 min with Hoechst 33,258 (1.9 µM) and increasing amounts of the coordination compounds were subsequently added. In all cases, fluorescence quenching was observed (Fig. 9). As previously, the Ksv constants were determined (Fig. 9c and Table 4). The copper(II) compounds show Ksv values in the […] range (Table 4), indicating a groove binding behavior. For the zinc(II) compounds, the Ksv values are two orders of magnitude lower indicating weaker interactions, must likely of electrostatic nature.

[3] = system: RH tachyzoites of Toxoplasma gondii; assay: Viability of extracellular tachyzoites, Sytox Green exclusion test; type: cell-based
Protocol: RH tachyzoites of Toxoplasma gondii were extracted in PBS solution at pH 7.4 from intraperitoneal fluid of infected CD1 mice on the third day of infection and centrifuged for ten minutes at 260g. Purified parasites were used within 4 h after their isolation.
The viability of the parasites was determined from staining with Sytox Green® fluorescent dye exclusion test. Purified tachyzoites (1 × 10^6) were incubated for one hour at room temperature with PBS solutions of the coordination compounds or the free ligands at concentrations of 40, 20, 10, 5, and 2.5 µM (0.1% DMSO), in a volume final of 1 mL. After the incubation time, the samples were centrifuged for 10 min at 250g, the medium was removed and 20 µL of Sytox Green® was added after 15 min of incubation for differentiate dead parasites in a Neubauer chamber. The assays were performed in triplicate. The half maximal inhibitory concentration (IC50) was calculated by Boltzmann regression analysis and expressed as mean ± standard error of three replicates. Based on the results the tachyzoites were incubated under the same conditions with the coordination compounds [Cu(onz)2Cl2] and [Cu(onz)2Br2] at their respective IC50 values, Sytox Green® was then added, and they were observed by fluorescence microscopy. Sulfadiazine was used as positive control.
Viability assays were performed against tachyzoites of Toxoplasma gondii. The RH strain was used to evaluate the effect of different concentrations (namely, 2.5, 5, 10, 20 and 40 µM) of the coordination compounds and the free 5-nitroimidazole against the tachyzoites. The evaluation were performed in PBS buffer (pH 7.4) with Sytox Green® exclusion test, which allows differentiating dead from live tachyzoites, since the intact cell membrane of alive ones is not stained.

[4] = system: mouse fibroblast L929 cells; assay: Cytotoxic activity in healthy host cells; type: cell-based
Protocol: The IC50 values obtained for [Cu(onz)2Cl2] (210.2 μM) and [Cu(onz)2Br2]

[5] = system: young adult male ICR mice; assay: Acute toxicity (LD50), intraperitoneal; type: in vivo, mouse; conditions: single dose
Protocol: For the acute toxicity assays, young adult male ICR mice with an average weight of 28 g and a variation of no more than ± 3 g were used. The handling of the animals was carried out in accordance with the committee for the care and use of laboratory animals (CICUAL) from the Faculty of Chemistry, UNAM.
A stock solution with a concentration of 25 mg mL^−1 of [Cu(onz)2Cl2] and [Cu(onz)2Br2] was prepared with water for injection. In the case of [Cu(onz)2Br2], 0.1% of DMSO was added. For the pharmacological profile three mice were used for each dose of 1, 10 and 100 mg kg^−1 per compound. For the acute toxicity assays five mice were treated for each dose (10, 50, 75 and 100 mg kg^−1) per compound. […] A detailed clinical observation was made 24 h after administration. The doses were administered intraperitoneally. The data obtained were used to calculate the mean lethal dose using the software Prism 13.0 and SPSS 29.0 [37, 38].
Based on the anti-toxoplasma results the medial lethal dose (LD50) for [Cu(onz)2Cl2] and [Cu(onz)2Br2] were determined intraperitoneally using doses of 10, 50, 75 and 100 mg kg^−1 per compound in young adult male ICR mice.

[6] = 1 h, PBS pH 7.4, mean ± standard error of three replicates, read-out: IC50
[7] = viability vs concentration, read-out: IC50 (Boltzman Fit, Fig. S6)

SMILES	Ethidium bromide Ksv (ct-DNA [1]) [M⁻¹]	Hoechst 33258 Ksv (ct-DNA [2]) [M⁻¹]	IC50 [3, 6] [µM]	IC50 [3, 7] [µM]	IC50 [4] [µM]	LD50 [5] [mg/kg]
Cc1ncc([N+](=O)[O-])n1CCCl.Cc1ncc([N+](=O)[O-])n1CCCl.[Br][Cu][Br] [[Cu(cenz)2Br2]]	35000	2.1e+06	–	–	–	–
Cc1ncc([N+](=O)[O-])n1CCCl.Cc1ncc([N+](=O)[O-])n1CCCl.[Cl][Cu][Cl] [[Cu(cenz)2Cl2]]	–	1.6e+06	30.55 ± 0.25	30.6	–	–
Cc1n(CC(O)CCl)c([N+](=O)[O-])c[n+]1[Cu-2]([Br])([Br])[n+]1cc([N+](=O)[O-])n(CC(O)CCl)c1C (centres unmarked) [[Cu(onz)2Br2]]	43000	2.5e+06	2.73 ± 0.34	2.73	180	83.24
Cc1ncc([N+](=O)[O-])n1CC(O)CCl.Cc1ncc([N+](=O)[O-])n1CC(O)CCl.[Cl-].[Cl-].[Cu+2] (centres unmarked) [[Cu(onz)2Cl2]]	26000	1.2e+06	8.49 ± 0.64	8.49	210	49.35
Cc1ncc([N+](=O)[O-])n1CCCl.Cc1ncc([N+](=O)[O-])n1CCCl.[Br][Zn][Br] [[Zn(cenz)2Br2]]	1100	120000	40 ± 0.96	40	–	–
Cc1ncc([N+](=O)[O-])n1CC(O)CCl.Cc1ncc([N+](=O)[O-])n1CC(O)CCl.[Cl][Zn][Cl] (centres unmarked) [[Zn(onz)2Cl2]]	4500	38000	–	–	–	–
